The values that follow come from patent publication US12044651B2, “Sensor device and methods” (SCENTIAN BIO LIMITED, priority 2016, dated 2024).

As a reminder, the EC50 is the midpoint of the concentration-response curve.

Each structure is given as a SMILES string. Like-named read-outs stand apart in the source and are kept apart here. Marks after values point to notes of the source that are not given here.

A short description of assay [1]: CNT-FET control, pristine CNT FET and empty nanodisc functionalized CNT FET (Example 2). The protocol: In order to carry out the electrical measurements the devices were set up with the PDMS well and source, drain and gate electrodes, via micromanipulators and a Rucker and Kolls probe station, as shown in FIG. 9. Before starting the electrical measurements, 100 μl of PBS buffer (containing 1% DMSO) was added into the testing well. The gate electrode is an Ag/AgCl wire (In Vivo Metric) sheathed in plastic where the exposed area at the end of Ag/AgCl was completely inserted into the PBS buffer to avoid any electrical artefacts that are known to occur when changing the active area of the gate electrode. An Agilent 4156C parameter analyser is used for all electrical measurements^20. The parameter analyser has excellent sensitivity and can accurately measure currents on the femto-amp scale.
During transfer (Vlg−Ids) measurements the gate voltage (Vlg) is swept between −500 mV to +1 V and the source drain voltage (Vds) is set as fixed values (50 mV, 100 mV or 200 mV). For our real time sensing measurement the Vlg is set to 0 and Vds is set as fixed values (50 mV, 100 mV or 200 mV, with a time step of 1 s.
The E-2-hexenal ligand solution is diluted from our 100 mM stock solution, to the concentration ranges required for the sensing experiments. […]

Another assay addresses T1, DmOr22a/Orco (Drosophila melanogaster, UniProt P81909).
T1 sequence (P81909 1-397): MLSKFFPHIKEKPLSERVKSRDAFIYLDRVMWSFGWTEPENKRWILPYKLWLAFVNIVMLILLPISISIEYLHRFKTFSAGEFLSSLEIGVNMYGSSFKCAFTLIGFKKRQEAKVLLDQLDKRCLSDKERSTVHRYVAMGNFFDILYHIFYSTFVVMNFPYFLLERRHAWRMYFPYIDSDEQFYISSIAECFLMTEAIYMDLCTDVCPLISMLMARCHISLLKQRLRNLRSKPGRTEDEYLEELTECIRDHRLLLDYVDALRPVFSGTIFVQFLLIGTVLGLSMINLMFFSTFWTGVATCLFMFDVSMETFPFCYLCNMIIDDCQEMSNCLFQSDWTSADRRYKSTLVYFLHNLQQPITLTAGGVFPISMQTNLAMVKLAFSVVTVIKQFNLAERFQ
T1 sequence (Q9VNB5 1-486 partner): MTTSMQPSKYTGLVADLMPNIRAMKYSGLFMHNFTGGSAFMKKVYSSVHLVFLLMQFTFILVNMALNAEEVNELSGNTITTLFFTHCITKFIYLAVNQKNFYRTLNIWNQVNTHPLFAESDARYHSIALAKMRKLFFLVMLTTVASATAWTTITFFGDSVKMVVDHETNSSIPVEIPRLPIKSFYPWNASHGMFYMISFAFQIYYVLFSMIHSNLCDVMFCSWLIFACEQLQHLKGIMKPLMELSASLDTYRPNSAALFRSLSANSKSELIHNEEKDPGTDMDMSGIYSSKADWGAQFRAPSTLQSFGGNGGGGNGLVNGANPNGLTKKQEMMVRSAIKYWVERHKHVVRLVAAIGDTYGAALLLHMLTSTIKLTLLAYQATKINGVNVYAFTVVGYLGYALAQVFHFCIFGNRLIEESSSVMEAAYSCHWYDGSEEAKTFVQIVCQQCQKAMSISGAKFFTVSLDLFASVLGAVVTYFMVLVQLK
Conditions: cited from earlier work; for Sensitivity limit (Log): given as Log, estimated visually from graph.

As for `CCC/C=C/C=O` [E2-hexenal], the “real time current response” value in assay [1] is recorded as “no clear current response”.
`CCCCCC(=O)OC` [methyl hexanoate]: the “Sensitivity limit (Log)” value is “Log = −7.5*” on DmOr22a/Orco (ref 23) and “Log = −7*” at DmOr22a/Orco (ref 24). Moreover, the EC50 at DmOr22a/Orco (ref 24) was 1170 nM.
